ChEMBL document CHEMBL1955858, “Synthesis and biological evaluation of novel amprenavir-based P1-substituted bi-aryl derivatives as ultra-potent HIV-1 protease inhibitors” (Bioorg Med Chem Lett, 2012)

Assays:
[1] = Selectivity index, ratio of CC50 for human C8166 cells to EC50 for HIV1 3B; assay type: toxicity, cell-based; details: read-out: Ratio CC50/EC50
[2] = target: Protease (Human immunodeficiency virus 1, UniProt Q9YQ12); assay: Inhibition of HIV1 protease using Arg-Glu(EDANS)-Ser-Gln-Asn-Tyr-Pro-Ile-Val-Gln-Lys(DABCYL)- Arg as substrate for 20 to 30 mins by FRET analysis
Chain of Protease (Q9YQ12 whole entry): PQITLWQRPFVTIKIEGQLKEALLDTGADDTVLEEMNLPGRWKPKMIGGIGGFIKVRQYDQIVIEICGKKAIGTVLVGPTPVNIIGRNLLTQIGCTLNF

[3] = tested on: Human immunodeficiency virus 1; assay: Antiviral activity against HIV1 3B infected in human C8166 cells assessed as inhibition of syncytia formation after 3 days; assay type: functional, organism-based; details: Human immunodeficiency virus 1, 3B, C8166, 72 h
[4] = Cytostatic activity against human C8166 cells by MTT assay; assay type: cell-based
[5] = tested on: Human immunodeficiency virus 1; assay: Ratio of amprenavir EC50 to compound EC50 for HIV1 3B; assay type: functional
[6] = target: Protease (Human immunodeficiency virus 1) (UniProt Q9YQ12); assay: Ratio of amprenavir Ki to compound Ki for HIV1 protease
Chain of Protease (Human immunodeficiency virus 1) (Q9YQ12 as listed by the source): as the sequence (Q9YQ12 whole entry) above

**Q.** With `COc1ccc(S(=O)(=O)N(CC(C)C)C[C@@H](O)[C@H](Cc2ccc(-c3cccc(O)c3)cc2)NC(=O)O[C@H]2CCOC2)cc1` as the molecule, how does the selectivity ratio [1] read?
**A.** 9540

**Q.** What about the Ki [2] of the same molecule?
**A.** 4.3 nM

**Q.** And the EC50 [3]?
**A.** 4.3 nM

**Q.** And the CC50 [4]?
**A.** 41000 nM

**Q.** For `COc1ccc(S(=O)(=O)N(CC(C)C)C[C@@H](O)[C@H](Cc2ccc(-c3ccc(C(C)=O)cc3)cc2)NC(=O)O[C@H]2CCOC2)cc1`, which selectivity ratio [1] is on record?
**A.** 90500

**Q.** And the Ki [2]?
**A.** 5.8 nM

**Q.** And the EC50 [3]?
**A.** 2.32 nM

**Q.** And the CC50 [4]?
**A.** 210000 nM

**Q.** For `CC(C)CN(C[C@@H](O)[C@H](Cc1ccc(-c2ccncc2)cc1)NC(=O)O[C@H]1CCOC1)S(=O)(=O)c1ccc(N)cc1`, which selectivity ratio [1] is on record?
**A.** 2.6e+06

**Q.** And the Ki [2]?
**A.** 0.086 nM

**Q.** And the “Ratio EC50” value [5]?
**A.** 30

**Q.** What about the EC50 [3] of the same molecule?
**A.** 0.1 nM

**Q.** What about the CC50 [4] of the same molecule?
**A.** 260000 nM

**Q.** What does the source list for `COc1ccc(S(=O)(=O)N(CC(C)C)C[C@@H](O)[C@H](Cc2ccc(-c3ccsc3)cc2)NC(=O)O[C@H]2CCOC2)cc1`?
**A.** selectivity ratio [1]: 35700; Ki [2]: 3.5 nM; EC50 [3]: 4.48 nM; CC50 [4]: 160000 nM

**Q.** Which results are given for `COc1ccc(S(=O)(=O)N(CC(C)C)C[C@@H](O)[C@H](Cc2ccc(-c3cccnc3)cc2)NC(=O)O[C@H]2CCOC2)cc1`?
**A.** selectivity ratio [1]: 68200; Ki [2]: 1.6 nM; EC50 [3]: 3.08 nM; CC50 [4]: 210000 nM

**Q.** With `COC(=O)c1cccc(-c2ccc(C[C@H](NC(=O)O[C@H]3CCOC3)[C@H](O)CN(CC(C)C)S(=O)(=O)c3ccc(OC)cc3)cc2)c1` as the molecule, how does the selectivity ratio [1] read?
**A.** 54900

**Q.** What about the Ki [2] of the same molecule?
**A.** 1.6 nM

**Q.** What about the EC50 [3] of the same molecule?
**A.** 3.46 nM

**Q.** What about the CC50 [4] of the same molecule?
**A.** 190000 nM

**Q.** Which selectivity ratio [1] does the source give for `COc1ccc(S(=O)(=O)N(CC(C)C)C[C@@H](O)[C@H](Cc2ccc(-c3ccc(SC)cc3)cc2)NC(=O)O[C@H]2CCOC2)cc1` here?
**A.** 34800

**Q.** And the Ki [2]?
**A.** 7.4 nM

**Q.** What about the EC50 [3] of the same molecule?
**A.** 6.89 nM

**Q.** What about the CC50 [4] of the same molecule?
**A.** 240000 nM

**Q.** With `COc1ccc(S(=O)(=O)N(CC(C)C)C[C@@H](O)[C@H](Cc2ccc(-c3ccncc3)cc2)NC(=O)O[C@H]2CCOC2)cc1` as the molecule, how does the selectivity ratio [1] read?
**A.** 97000

**Q.** What about the Ki [2] of the same molecule?
**A.** 3.8 nM

**Q.** What about the EC50 [3] of the same molecule?
**A.** 2.68 nM

**Q.** And the CC50 [4]?
**A.** 260000 nM

**Q.** What does the source list for `COc1ccc(S(=O)(=O)N(CC(C)C)C[C@@H](O)[C@H](Cc2ccc(-c3ccc(F)cc3)cc2)NC(=O)O[C@H]2CCOC2)cc1`?
**A.** selectivity ratio [1]: 35200; Ki [2]: 5.8 nM; EC50 [3]: 3.98 nM; CC50 [4]: 140000 nM

**Q.** With `COc1ccc(S(=O)(=O)N(CC(C)C)C[C@@H](O)[C@H](Cc2ccc(-c3ccc(OC)c(C)c3)cc2)NC(=O)O[C@H]2CCOC2)cc1` as the molecule, how does the selectivity ratio [1] read?
**A.** 46800

**Q.** What about the Ki [2] of the same molecule?
**A.** 1.8 nM

**Q.** And the EC50 [3]?
**A.** 3.63 nM

**Q.** And the CC50 [4]?
**A.** 170000 nM

**Q.** Which results are given for `COc1ccc(S(=O)(=O)N(CC(C)C)C[C@@H](O)[C@H](Cc2ccc(-c3ccc(Cl)cc3)cc2)NC(=O)O[C@H]2CCOC2)cc1`?
**A.** selectivity ratio [1]: 53600; Ki [2]: 6.4 nM; EC50 [3]: 4.29 nM; CC50 [4]: 230000 nM

**Q.** Which results are given for `COc1ccc(S(=O)(=O)N(CC(C)C)C[C@@H](O)[C@H](Cc2ccc(-c3ccc(OC(F)(F)F)cc3)cc2)NC(=O)O[C@H]2CCOC2)cc1`?
**A.** selectivity ratio [1]: 28100; Ki [2]: 5.2 nM; EC50 [3]: 6.04 nM; CC50 [4]: 170000 nM

**Q.** Which selectivity ratio [1] does the source give for `COc1ccc(S(=O)(=O)N(CC(C)C)C[C@@H](O)[C@H](Cc2ccc(-c3cccc(C#N)c3)cc2)NC(=O)O[C@H]2CCOC2)cc1` here?
**A.** 34800

**Q.** And the Ki [2]?
**A.** 8.1 nM

**Q.** What about the EC50 [3] of the same molecule?
**A.** 9.2 nM

**Q.** What about the CC50 [4] of the same molecule?
**A.** 320000 nM

**Q.** For `CC(C)CN(C[C@@H](O)[C@H](Cc1ccccc1)NC(=O)O[C@H]1CCOC1)S(=O)(=O)c1ccc(N)cc1` [AMPRENAVIR], which selectivity ratio [1] is on record?
**A.** 78500

**Q.** What about the Ki [2] of the same molecule?
**A.** 0.84 nM

**Q.** What about the EC50 [3] of the same molecule?
**A.** 2.93 nM

**Q.** And the CC50 [4]?
**A.** 230000 nM

**Q.** For `COc1ccc(S(=O)(=O)N(CC(C)C)C[C@@H](O)[C@H](Cc2ccc(-c3ccc(C(=O)O)cc3)cc2)NC(=O)O[C@H]2CCOC2)cc1`, which selectivity ratio [1] is on record?
**A.** 25300

**Q.** And the Ki [2]?
**A.** 1.9 nM

**Q.** What about the EC50 [3] of the same molecule?
**A.** 5.53 nM

**Q.** And the CC50 [4]?
**A.** 140000 nM

**Q.** Which results are given for `CC(C)CN(C[C@@H](O)[C@H](Cc1ccc(-c2ccccc2)cc1)NC(=O)O[C@H]1CCOC1)S(=O)(=O)c1ccc(N)cc1`?
**A.** selectivity ratio [1]: 14200; Ki [2]: 1.98 nM; EC50 [3]: 2.25 nM; CC50 [4]: 32000 nM

**Q.** With `CC(C)CN(C[C@@H](O)[C@H](Cc1ccc(-c2cccnc2)cc1)NC(=O)O[C@H]1CCOC1)S(=O)(=O)c1ccc(N)cc1` as the molecule, how does the Ratio Ki [6] read?
**A.** 2

**Q.** What about the selectivity ratio [1] of the same molecule?
**A.** 2e+06

**Q.** What about the Ki [2] of the same molecule?
**A.** 0.33 nM

**Q.** And the “Ratio EC50” value [5]?
**A.** 30

**Q.** And the EC50 [3]?
**A.** 0.1 nM

**Q.** And the CC50 [4]?
**A.** 200000 nM
